Measurements reported in article PMC13230610, “Fast analysis and engineering of protein function by microbe-independent deep assembly and screening” (Molecular Systems Biology, 2026).

Legend:
[1] = system: T1, ACh-NeuBI0.5 (engineered OpuBC fused with SmBiT/LgBiT and mScarlet-I); assay: bioluminescence dose-response of indicator expressed on HEK293A cells; type: cell-based, Homo sapiens (HEK293A cells)
T1 construct: mScarlet-I at N-terminus of OpuBC (30-106)-linker 1 (Phe)-SmBiT (∆C3)-LgBiT-OpuBC (107-305)

[2] = system: T2, ACh-NeuBI1b (ACh-NeuBI0.5 QAE; engineered OpuBC fused with SmBiT/LgBiT and mScarlet-I); assay: bioluminescence dose-response in HEK293A cells; also purified protein responded; type: cell-based, Homo sapiens (HEK293A cells)
T2 construct: ACh-NeuBI0.5 QAE

CC(=O)OCC[N+](C)(C)C [acetylcholine]
Kd [1]: 898 µM | Kd [2]: 188 µM

C[N+](C)(C)CCO [choline]
Kd [1]: 11000 µM
